Data on two molecules can be found in patent US8071575B2, “Methods and compounds for the targeted delivery of agents to bone for interaction therewith” (priority 2007, dated 2011).

The subject of data set [1] is OVX rats. The data set can be described thus: Bone mechanical competence indentation test. Type of data set: in vivo, Sprague-Dawley female rats. The following applies: present-tense example, no data or figure. The procedure:
(§1) Animals. Six month old, bilaterally ovariectomized (OVX) or sham operated Sprague-Dawley female rats (Harlan Laboratories, Indianapolis, Ind.) were maintained at the University of Louisville Research Resources Center at 22° C. with a 12-h light/dark cycle and ad libitum access to tap water and rodent chow (Purina Laboratory Rodent Diet 5001). All animal procedures were approved by the Institutional Animal Care and Use Committee, which is certified by the American Association for Accreditation of Laboratory Animal Care.
(§2) In vivo experiments were conducted in order to investigate the efficacy of compounds of the presently-disclosed subject matter. In all of the experiments, OVX and sham operated rats were randomly divided into groups of 5-7 animals. In all of the studies experimental groups included: i) Sham-operated control (euthanized six weeks post surgery as a pretreatment control), ii) OVX control (euthanized six weeks post surgery as a pretreatment control), iii) Sham control receiving vehicle, iv) OVX control receiving vehicle, v) OVX receiving 17-ethinyl estradiol (equimolar concentration with a selected test compound), vi) OVX receiving alendronate (1.6 mg/kg), and vii) OVX receiving parathyroid hormone 1-34 (PTH) ([…]). 17-ethinyl estradiol (17 EE) is a free estrogenic agent known to be orally active, and can serve as an example of an anti-catabolic agent. Alendronate (Alen) is a bisphosphonate that is currently used to treat osteoporosis (e.g., Fosamax®, Merck & Co., Inc,), and can serve as an example of an anti-catabolic agent. Parathyroid hormone 1-34 (PTH) is an agent that can serve as an example of an anabolic agent. All compounds and vehicle (1% DMSO in corn oil) were administered three times per week orally by gavage except for PTH which was administered via a subcutaneous injection in a volume of 0.5 ml/kg body mass thrice per week. Compound administration was initiated 6 weeks following surgery and lasted for 6 weeks (18 doses total).
(§3) Compounds of the presently-disclosed subject matter were orally administered to OVX rats at various doses. As indicated above all BTE's were administered three times per week for 6 weeks.
(§4) Following 6 weeks of treatment, blood was obtained from each animal via cardiac puncture following an overnight fast and animals were subsequently euthanized via carbon dioxide asphyxiation. Blood was centrifuged immediately and the obtained serum samples were aliquoted and stored at −70° C. prior to analysis. Uteri were removed and fresh weights were obtained. Uterine masses were normalized to body mass at the end of the experiment. The left and right femora and left and right tibiae were subsequently collected from each animal, cleaned of soft tissue, and stored in saline at 4° C. prior to analysis.
Bone Mechanical Competence Indentation Test. After sacrifice, the left tibiae were trimmed to expose the cancellous bone of the proximal tibial metaphysis and an indentation test was performed by advancing a flat-tipped cylindrical post (1.5 mm diameter) axially into the cut surface to measure the compressive strength of the cancellous bone structure.

Data set [2] relates to OVX rats. The data set is described as follows: Femoral density via Archimedes' Principle (whole bone). The following applies: OVX rats, three times per week for 6 weeks. It counts as in vivo, Sprague-Dawley female rats. The procedure:
as §1, §2, §3, §4
Femoral Density via Archimedes' Principle. Right femora were submerged in distilled water and fully hydrated under a vacuum for 1 hr. Subsequently, the mass of each hydrated femur was obtained in air and when submerged in water. Densities were determined using Archimedes' Principle according to the following formula: density=[mass of hydrated femur/(mass of hydrated femur−mass of hydrated femur submerged in water)]×density of distilled water at a given temperature (See Keenan, et al. Comparison of bone density measurement techniques: DXA and Archimedes' principle. J Bone Miner Res 1997; 12:1903-7.). The obtained density measurements were associated with whole bone.

Data set [3] concerns OVX rats. The data set is described as follows: Quantitative determination of lipid metabolism (total cholesterol, HDL, LDL) in rat serum. Type of data set: in vivo, Sprague-Dawley female rats. The procedure: as §1, §2, §4
Quantitative Determination of Lipid Metabolism (Total Cholesterol HDL, and LDL) in Rat Serum. Total cholesterol, high-density lipoprotein (HDL), and low-density lipoprotein (LDL) were quantitatively determined in the serum of rats in order to evaluate the extraosseous effects of estrogen treatment on lipid metabolism. Commercially available kits from Wako Diagnostics (Richmond, Va.) were used for the evaluations as recommended by the manufacturer.

A short description of data set [4]: Hydroxyapatite (HA) Binding Assay. The following applies: 10^−5 M analyte, 50 mM Tris-HCl pH 7.4, 1% DMSO; adjusted such that tetracycline = 100. The procedure: A Hydroxyapatite (HA) Binding Assay is used to determine whether compounds have an affinity for bone. Compounds of the presently-disclosed subject matter having a Bone Targeting Portion (RT) are studied using the HA Binding Assay. A 10^−3 M solution of each analyte was made in 100% dimethylsulfoxide (DMSO). A 100 fold dilution was then made to form a 10^−5 M solution in 50 mM Tris-HCl buffer, pH 7.4, 1% DMSO. Tetracycline was used as a reference analyte and approximately 50% was adsorbed to HA at the concentration of 10^−5 M. The HA slurry was 0.5 g/100 mL 50 mM Tris-HCl buffer, 1% DMSO.
For each analyte, two samples were prepared. For one sample, 1 mL of 10^−5 M analyte and 100 μL 50 mM Tris-HCl buffer, 1% DMSO was pipetted into a microcentrifuge tube. For the second sample, 1 mL of 10^−5 M analyte and 100 μL of the HA slurry was pipetted into a microcentrifuge tube. The samples were mixed gently by inversion for 4 minutes and then centrifuged at 12,000 g for 3 minutes to sediment the HA contained in those samples. The supernatant was transferred to another microcentrifuge tube.
An electronic spectral scan (ultraviolet-visible) from 220-520 nm was obtained for each analyte using a Varian Cary 300 Bio Scan. The blank was 50 mM Tris-HCl buffer, 1% DMSO. The wavelength of maximum absorbance (λmax) was determined, and the extinction coefficient (ε) was calculated using the Beer-Lambert Law.
The absorbance of the samples incubated with HA was measured at λmax, and the molar concentration of the analyte was then determined using the Beer-Lambert Law and the previously calculated extinction coefficient. The fraction adsorbed to HA for each sample was subsequently calculated.

The subject of the next data set is ICR Swiss mice. The data set is described as follows: Stimulation of periosteal bone formation in a mouse calvarial injection model. The following applies: present-tense example, no data or figure. Type of data set: in vivo. The procedure:
Stimulation of Periosteal Bone Formation in a Mouse Calvarial Injection Model. The anabolic (bone formation) of compounds of the presently-disclosed subject matter are evaluated in the mouse calvarial injection model. Briefly, 4-week-old ICR Swiss mice are injected subcutaneously over the surface of the calvariae with compounds of the presently-disclosed subject matter at concentrations of 0, 1, 3, and 10 mg/kg/day for 5 days (twice a day). Microtubule inhibitor TN-16 (5 mg/kg/day for 2 days, twice a day) are used as a positive control. Mice are sacrificed two weeks after the injections are completed. Dissected calvarial samples are fixed in 10% phosphate-buffered formalin for 2 days, decalcified in 10% EDTA for 2 weeks and then embedded in paraffin. Histological sections are cut and stained with H&E and orange G. New woven bone formation (new bone area) is quantified by histomorphometry using the OsteoMeasure system (OsteoMetrics Inc., Atlanta, Ga.).

On to `COc1ccc(NC(=O)CCC(=O)OC2CCC3C4CCC5=CC(=O)CCC5(C)C4CCC23C)c(O)c1C(N)=O` (stereo not shown) [Formula 33], for which the “bone strength (indentation test)” value in the data set with OVX rats [1] is “increase bone strength”. Besides, the “whole bone density (right femora)” value with OVX rats [2] (oral 3000 μg/kg) is on record as “higher than that of the OVX animals”. Further, in the data set on OVX rats [3] (present-tense example, no data or figure), the “lipid metabolism (total cholesterol, HDL, LDL in serum)” value is recorded as “limited or no effect”. The “Binding Index (binding to hydroxyapatite)” value in data set [4] is listed as 140. The “new bone area (calvarial injection model)” value in the data set on ICR Swiss mice was “increase new bone area”.
As for `COc1ccc(NC(=O)COCCOCCNC(=O)CCOC2CCC3C4CCc5cc(O)ccc5C4CCC23C)c(O)c1C(N)=O` (stereo not shown) [Formula 123], in the data set on OVX rats [1], the “bone strength (indentation test)” value was “increase bone strength”. Further, the “whole bone density (right femora)” value in the data set on OVX rats [2] (oral 10, 100, or 1000 μg/kg) is listed as “in the same ranges as those animals receiving 17-ethinyl estradiol (17 EE), Alendronate (Alen), or Parathyroid hormone 1-34 (PTH)”. Besides, in the data set on OVX rats [3] (rat, in vivo), the “lipid metabolism (total cholesterol, HDL, LDL in serum)” value is on record as “limited or no effect”. Besides, the “Binding Index (binding to hydroxyapatite)” value in data set [4] was found to be 160. For the same molecule, the “new bone area (calvarial injection model)” value in the data set on ICR Swiss mice is on record as “affect new bone area”.
